PubChem BioAssay AID330 (DTP/NCI, 2004)
Several values for one entry are separate records, joined by “and”; a condition that tells them apart may be missing. Equal values may be shown once. Inconclusive results and toxic doses are left out.

System: P388 leukemia ip, CD2F1 mice, survival T/C
Assay: NCI In Vivo Anticancer Drug Screen. Data for tumor model P388 Leukemia (intraperitoneal) in CD2F1 (CDF1) mice
Conditions: endpoint: median survival time, higher = longer survival
Method in brief: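 Mice carrying the transplanted tumor received test compound or vehicle. Survival was recorded in each group, and the value is the treated-group measurement divided by that of the vehicle-treated control group.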

[1] = dose: 60.0 mg/kg/injection, schedule: Q01DX005 (ip), vehicle: saline with Tween-80
[2] = dose: 120.0 mg/kg/injection, schedule: Q01DX005 (ip), vehicle: saline with Tween-80
[3] = dose: 240.0 mg/kg/injection, schedule: Q01DX005 (ip), vehicle: saline with Tween-80

SMILES	T/C [1]	T/C [2]	T/C [3]	also measured
COC(=O)[C@@H]1CCC(/C(C#N)=C2/CC[C@@H](C(=O)OC)N2)=N1	96 % of control	95 % of control	94 % of control	
Oc1cc2c(cc1C(c1ccc(Cl)cc1)N1CCOCC1)OCO2 (stereo not given)	102 % of control	111 % of control	124 % of control	
Cc1cc(Cc2ccc3c(c2)OCO3)ccc1OCC(=O)O				T/C (dose: 50.0 mg/kg/injection, schedule: Q01DX005 (ip), vehicle: Klucel (hydroxypropylcellulose) (HPC)): 98 % of control; T/C (dose: 100.0 mg/kg/injection, schedule: Q01DX005 (ip), vehicle: Klucel (hydroxypropylcellulose) (HPC)): 105 % of control; T/C (dose: 200.0 mg/kg/injection, schedule: Q01DX005 (ip), vehicle: Klucel (hydroxypropylcellulose) (HPC)): 104 % of control
CC1=CC2C(c3ccccc3)Nc3ccccc3N2C1=O (stereo not given)				T/C (dose: 50.0 mg/kg/injection, schedule: Q01DX009 (ip), vehicle: saline): 94 % of control; T/C (dose: 100.0 mg/kg/injection, schedule: Q01DX009 (ip), vehicle: saline): 100 % of control; T/C (dose: 200.0 mg/kg/injection, schedule: Q01DX009 (ip), vehicle: saline): 94 % of control
CN1NC(c2ccccc2)=C(C#N)C(=O)CC1c1ccco1 (stereo not given)	102 % of control	86 % of control	97 % of control	
CCOC(=O)C1=NN(c2ccccc2)C(C)(C(=O)OC)C1 (stereo not given)	98 % of control	98 % of control	95 % of control	
COc1ccccc1C(Nc1nncs1)Nc1nncs1	106 % of control	97 % of control		
O=S(CF)c1ccccc1 (stereo not given)				T/C (dose: 75.0 mg/kg/injection, schedule: Q04DX003 (ip), vehicle: saline): 91 % of control; T/C (dose: 150.0 mg/kg/injection, schedule: Q04DX003 (ip), vehicle: saline): 101 % of control; T/C (dose: 300.0 mg/kg/injection, schedule: Q04DX003 (ip), vehicle: saline): 107 % of control
OC(CCl)CN1CCN(CC(O)CCl)CC1 (stereo not given)				T/C (dose: 25.0 mg/kg/injection, schedule: Q01DX005 (ip), vehicle: water): 150 % of control; T/C (dose: 100.0 mg/kg/injection, schedule: Q01DX005 (ip), vehicle: water): 90 % of control and 92 % of control
